Source: US10034476B2, “Insecticidal phenyl-or pyridyl-piperdine compounds” (Syngenta Participations AG, priority 2008, dated 2018)
Where a name gives a salt, the structure may show the parent alone.

Columns and labels:
Format in all cases: in vivo
Spodoptera littoralis = Spodoptera littoralis (Egyptian cotton leafworm) cotton leaf disc spray test; details: foliar, 72 h, 200 ppm spray on cotton leaf discs, L1 larvae, 3 DAT, mortality, feeding behavior, growth regulation
Excerpt: Spodoptera littoralis (Egyptian Cotton Leafworm) Cotton leaf discs were placed on agar in a 24-well microtiter plate and sprayed with test solutions at an application rate of 200 ppm. After drying, the leaf discs were infested with 5 L1 larvae. The samples were checked for mortality, feeding behavior, and growth regulation 3 days after treatment (DAT).

Heliothis virescens = Heliothis virescens (tobacco budworm) egg/artificial diet test; details: 96 h, 200 ppm (concentration in well 18 ppm), eggs 0-24 h old on artificial diet, 4 days, egg mortality, larval mortality, growth regulation
Experimental: Heliothis virescens (Tobacco Budworm): Eggs (0-24 h old) were placed in 24-well microtiter plate on artificial diet and treated with test solutions at an application rate of 200 ppm (concentration in well 18 ppm) by pipetting. After an incubation period of 4 days, samples were checked for egg mortality, larval mortality, and growth regulation.

Plutella xylostella = Plutella xylostella (diamond back moth) artificial diet test; details: 144 h, 200 ppm (concentration in well 18 ppm), L2 larvae, 6 days, larval mortality, growth regulation
Experimental: (§1) Plutella xylostella (Diamond Back Moth): 24-well microtiter plate (MTP) with artificial diet was treated with test solutions at an application rate of 200 ppm (concentration in well 18 ppm) by pipetting. After drying, the MTP's were infested with L2 larvae (7-12 per well). After an incubation period of 6 days, samples were checked for larval mortality and growth regulation.

Diabrotica balteata = Diabrotica balteata (corn root worm) artificial diet test; details: 120 h, 200 ppm (concentration in well 18 ppm), L2 larvae, 5 days, larval mortality, growth regulation
Experimental: as §1, with “Diabrotica Balteata (Corn Root Worm): A” for “Plutella xylostella (Diamond Back Moth):”, “with” for “with L2”, “(L2) (6-10” for “(7-12”, “5” for “6”, “mortality,” for “mortality”

Measured: pest or weed control at 200 ppm

O=C(Nc1cc(F)c(F)c(F)c1C1CCN(Cc2ccc(-c3ccc(F)cc3)cc2)CC1)c1ccnc(Cl)c1 [Compound E1, 2-chloro-N-{3,4,5-trifluoro-2-[1-(4′-fluoro-biphenyl-4-ylmethyl)-piperidin-4-yl]-phenyl}-isonicotinamide]
≥ 80%: all assays above

O=C(Nc1ccc(C(F)(F)F)cc1C1CCN(Cc2ccc(-c3ccc(Cl)cc3Cl)cc2)CC1)c1ccnc(Cl)c1 [Compound F1]
≥ 80%: all assays above

O=C(Nc1cc(F)c(F)c(F)c1C1CC[N+]([O-])(Cc2ccc(-c3ccc(F)cc3)cc2)CC1)c1ccnc(Cl)c1 (stereo not shown) [Compound G1, 2-chloro-N-{3,4,5-trifluoro-2-[1-(4′-fluoro-biphenyl-4-ylmethyl)-piperidin-4-yl]-phenyl}-isonicotinamide N-oxide]
≥ 80%: all assays above

O=C(Nc1ccc(C(F)(F)F)cc1C1CC[N+](O)(Cc2ccc(-c3ccc(F)cc3)cc2)CC1)c1ccnc(Cl)c1 (stereo not shown) [Compound J1]
≥ 80%: all assays above

O=C(Nc1ccc(C(F)(F)F)nc1C1CC[N+](O)(Cc2ccc(-c3ccc(F)cc3)cc2)CC1)c1ccnc(Cl)c1 (stereo not shown) [Compound K1, 2-chloro-N-[1′-(4′-fluoro-biphenyl-4-ylmethyl)-1′-oxy-6-trifluoromethyl-1′,2′,3′,4′,5′,6′-hexahydro-[2,4′]bipyridinyl-3-yl]-isonicotinamide 3-hydroxypropyl sulfonate salt]
≥ 80%: all assays above

O=C(Nc1cc(Cl)c(Cl)nc1C1CCN(Cc2ccc(-c3ccc(F)cc3)cc2)CC1)c1ccnc(Cl)c1 [Compound M1, hydrochloride]
≥ 80%: all assays above

O=C(Nc1ccc(C(F)(F)F)nc1C1CCN(Cc2ccc(-c3ccc(F)cc3)cc2)CC1)c1ccnc(Cl)c1 [Compound M4]
≥ 80%: all assays above
